One experiment concerns the target PTGER2 (EP2) (Homo sapiens (Human), UniProt P43116). As to the kind of experiment: hEP2 b-arrestin assay (PathHunter HEK 293 PTGER2 b-arrestin cells). Type of experiment: cell-based. Particulars: antagonistic activity, beta-arrestin assay; read-out: hEP2 b-arr IC50. As to the method:
Plate is pre-incubated 15 minutes at 37° C. Then five microliters of PGE2 (final conc. 5 μM) are transferred into the assay plate. Plate is incubated 120 minutes at 37° C.
(each concentration is measured in duplicate)

The target in another experiment is EP2 (Homo sapiens (Human), UniProt P43116). As to the kind of experiment: hEP2 cAMP assay (SF295 glioblastoma cells, HTRF cAMP). Type of experiment: cell-based. Conditions: antagonistic activity. Put shortly: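 PGE2-driven cAMP accumulation was measured by HTRF in SF295 cells, which express endogenous EP2 only. Cells in assay buffer with 2 mM IBMX were pre-incubated 45 min at RT, then incubated 30 min at RT. Detection used competition between cellular cAMP and d2-cAMP for a cryptate anti-cAMP antibody.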
For orientation: Changes in cAMP serve as a functional read-out for many G protein-coupled receptors.

The next experiment deals with EP4 (Homo sapiens (Human), UniProt P35408). As to the kind of experiment: hEP4 cAMP assay (BT549 breast cancer cells, HTRF cAMP). Type of experiment: cell-based. Conditions: antagonistic activity, PGE2 6 nM. Put shortly:
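BT549 breast cancer cells (endogenous EP4) in HBSS/20 mM HEPES/0.2% BSA/2 mM IBMX preincubated 45 min at RT with compound, then stimulated 30 min at RT with 6 nM PGE2 (final). cAMP read by competitive HTRF immunoassay, signal inversely proportional to cAMP.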

In a further experiment the target is PTGER4 (EP4) (Homo sapiens (Human), UniProt P35408). The experiment in a line: cell-based.

The structures appear in SMILES notation.

PTGER2 (EP2), sequence (P43116 whole entry): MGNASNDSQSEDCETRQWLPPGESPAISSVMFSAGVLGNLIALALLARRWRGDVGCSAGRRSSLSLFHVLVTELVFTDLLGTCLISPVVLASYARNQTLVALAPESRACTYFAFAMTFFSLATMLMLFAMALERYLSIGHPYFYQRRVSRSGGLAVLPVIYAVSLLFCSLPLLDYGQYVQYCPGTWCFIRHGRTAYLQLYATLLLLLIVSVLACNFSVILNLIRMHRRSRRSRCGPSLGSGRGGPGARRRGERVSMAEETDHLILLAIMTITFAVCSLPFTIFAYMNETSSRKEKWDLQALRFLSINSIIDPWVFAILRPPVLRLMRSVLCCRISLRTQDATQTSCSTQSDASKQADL
EP2, sequence (P43116 whole entry): as above
EP4, sequence (P35408 whole entry): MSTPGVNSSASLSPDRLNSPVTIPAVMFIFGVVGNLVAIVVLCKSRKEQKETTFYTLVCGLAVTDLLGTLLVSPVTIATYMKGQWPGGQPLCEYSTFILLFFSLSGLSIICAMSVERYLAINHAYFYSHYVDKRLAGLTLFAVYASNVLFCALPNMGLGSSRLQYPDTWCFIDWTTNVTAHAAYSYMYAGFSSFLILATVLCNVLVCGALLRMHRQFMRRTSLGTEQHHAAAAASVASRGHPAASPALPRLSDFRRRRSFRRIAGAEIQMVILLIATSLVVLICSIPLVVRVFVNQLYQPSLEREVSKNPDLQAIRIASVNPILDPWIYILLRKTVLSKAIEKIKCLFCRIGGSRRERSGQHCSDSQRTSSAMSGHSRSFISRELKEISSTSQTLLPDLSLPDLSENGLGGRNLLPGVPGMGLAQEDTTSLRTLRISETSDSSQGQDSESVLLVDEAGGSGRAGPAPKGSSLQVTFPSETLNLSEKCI
PTGER4 (EP4), sequence (P35408 whole entry): as above
Description for PTGER4 (EP4): The system is based on the Enzyme Fragment Complementation Technology. Two complementing fragments of the b-galactosidase enzyme are expressed within stably transfected cells. The larger portion of b-gal, termed EA for Enzyme Acceptor, is fused to the C-terminus of b-arrestin 2. The smaller fragment, termed ProLink™ tag, is fused to PTGER2 (EP2) or PTRGER4 (EP4) at the C-terminus. Upon activation, b-arrestin is recruited which forces the interaction of ProLink and EA, allowing complementation of the two fragments of b-gal and the formation of a functional enzyme which is capable of hydrolysing the substrate and generating a chemiluminescent signal.
Plate is incubated at 37° C., 5% CO2 for 24 hours.
Stock solutions of test compounds are made at a concentration of 10 mM in DMSO, and serially diluted in DMSO to concentrations required for inhibition dose response curves (tested concentration range 10 μM-2 nM or 1 μM-0.2 nM).
Five microliters of diluted compounds are transferred into the assay plate. Plate is pre-incubated 15 minutes at 37° C. Then five microliters of PGE2 (final conc. 20 nM) are transferred into the assay plate. Plate is incubated 120 minutes at 37° C.
Twelve I of reagent are transferred to the assay plate and incubate for 1 hour at RT in the dark. Luminescence counts are read on a BMG Fluostar Optima reader according to manufacturer's instructions.
For each compound concentration calculate of the percentage of activity compared to DMSO control value as average ±STDEV. (each concentration is measured in duplicate)

With `CCOc1cc(-c2cc(NCCc3ccc4ccccc4c3C)ncn2)sc1C(=O)O` [Example 7, 3-Ethoxy-5-{6-[2-(1-methyl-naphthalen-2-yl)-ethylamino]-pyrimidin-4-yl}-thiophene-2-carboxylic acid], the IC50 (as a rule, the point on the concentration scale where inhibition reaches its midpoint) came to 21 nM on PTGER2 (EP2), 12 nM against EP2, 5 nM at EP4 and 14 nM on PTGER4 (EP4).

Consider `CCOc1cc(-c2cc(NCCc3cc(F)c4sccc4c3)ncn2)ccc1-c1nnn[nH]1` [Example 452, {6-[3-Ethoxy-4-(1H-tetrazol-5-yl)-phenyl]-pyrimidin-4-yl}-[2-(7-fluoro-benzo[b]thiophen-5-yl)-ethyl]-amine], for which the IC50 at PTGER2 (EP2) came to 103 nM; on EP2 it was 371 nM; against EP4 (BT549 cells), 18 nM; against PTGER4 (EP4), 21 nM.

Take `COc1cc2c(cc1CCNc1cc(-c3ccc4c(C(=O)O)c[nH]c4c3)ncn1)OCCO2` [Ex 323]: the IC50 at PTGER2 (EP2) came to 438 nM; on EP2, 114 nM; against EP4, 835 nM; against PTGER4 (EP4), 1900 nM.

For `CCOc1cc(-c2cc(NCCc3cc4ccccc4cc3C)ncn2)sc1C(=O)O` [Ex 40, 3-Ethoxy-5-{6-[2-(3-methyl-naphthalen-2-yl)-ethylamino]-pyrimidin-4-yl}-thiophene-2-carboxylic acid], the IC50 on PTGER2 (EP2) turned out to be 126 nM; against EP2, 228 nM; against EP4 it was 20 nM; at PTGER4 (EP4) it was 25 nM.

As for `CCOc1cc(-c2cc(NCCc3cc4c(cc3F)OCCN4C)ncn2)sc1C(=O)O` [Ex 104, 3-Ethoxy-5-{6-[2-(7-fluoro-4-methyl-3,4-dihydro-2H-benzo[1,4]oxazin-6-yl)-ethylamino]-pyrimidin-4-yl}-thiophene-2-carboxylic acid], the IC50 is 12 nM at PTGER2 (EP2), 13 nM against EP2, 71 nM against EP4 and 91 nM at PTGER4 (EP4).

For the molecule `CCOc1cc(-c2cc(NCCc3cc4ccoc4cc3OC)ncn2)sc1C(=O)O` [Ex 12, 3-Ethoxy-5-{6-[2-(6-methoxy-benzofuran-5-yl)-ethylamino]-pyrimidin-4-yl}-thiophene-2-carboxylic acid], the IC50 at PTGER2 (EP2) turned out to be 7 nM; against EP2, 3 nM; on EP4 it was 7 nM; on PTGER4 (EP4), 20 nM.

Regarding `CCOc1cc(-c2cc(NCCc3ccc4ccccc4c3C)ncn2)sc1C(=O)NS(C)(=O)=O` [Example 355, N-(3-Ethoxy-5-{6-[2-(1-methyl-naphthalen-2-yl)-ethylamino]-pyrimidin-4-yl}-thiophene-2-carbonyl)-methanesulfonamide], the IC50 at PTGER2 (EP2) was found to be 55 nM; against EP2 it was 46 nM; against EP4, 95 nM; against PTGER4 (EP4) it was 29 nM.

`CCOc1cc(-c2cc(NCCc3c(F)c(F)c4cc(C)oc4c3OC)ncn2)sc1C(=O)O` [Ex 55, 5-{6-[2-(4,5-Difluoro-7-methoxy-2-methyl-benzofuran-6-yl)-ethylamino]-pyrimidin-4-yl}-3-ethoxy-thiophene-2-carboxylic acid]: the IC50 amounted to 844 nM on PTGER2 (EP2), 335 nM on EP2, 16 nM against EP4 and 25 nM at PTGER4 (EP4).

Consider `CCOc1cc(-c2cc(NCCc3c(OC)cc4c(c3C)OCCO4)ncn2)ccc1C(=O)O` [Example 395, 2-Ethoxy-4-{6-[2-(7-methoxy-5-methyl-2,3-dihydro-benzo[1,4]dioxin-6-yl)-ethylamino]-pyrimidin-4-yl}-benzoic acid], for which the IC50 at PTGER2 (EP2) was determined as 4 nM; on EP2 it was 5 nM; against EP4 (BT549 cells), 128 nM; at PTGER4 (EP4) it was 98 nM.

As for `CCOc1cc(-c2cc(NCCc3cc4c(cc3C)OCCO4)ncn2)sc1-c1noc(=O)[nH]1` [Example 341, 3-(3-Ethoxy-5-{6-[2-(7-methyl-2,3-dihydro-benzo[1,4]dioxin-6-yl)-ethylamino]-pyrimidin-4-yl}-thiophen-2-yl)-[1,2,4]oxadiazol-5(4H)-one], the 50% inhibitory concentration (IC50) at PTGER2 (EP2) came out at 12 nM; against EP2, 41 nM; on EP4, 36 nM; against PTGER4 (EP4), 14 nM.

With `CCSc1cc(-c2cc(NCCc3cc4c(cc3OC)OCCO4)ncn2)ccc1C(=O)O` [Ex 110, 2-Ethylsulfanyl-4-{6-[2-(7-methoxy-2,3-dihydro-benzo[1,4]dioxin-6-yl)-ethylamino]-pyrimidin-4-yl}-benzoic acid], the IC50 on PTGER2 (EP2) was found to be 56 nM; against EP2, 61 nM; on EP4, 81 nM; at PTGER4 (EP4), 179 nM.

`CCOc1cc(-c2cc(NCCc3cc4ccsc4cc3C)ncn2)ccc1CC(=O)O` [Ex 290]: the IC50 was found to be 163 nM at PTGER2 (EP2), 194 nM at EP2, 527 nM at EP4 and 438 nM on PTGER4 (EP4).

Take `COc1cc2occc2c(C)c1CCNc1cc(-c2ccc(C(=O)O)c(OC3CCC3)c2)ncn1` [Ex 208, 2-Cyclobutoxy-4-{6-[2-(6-methoxy-4-methyl-benzofuran-5-yl)-ethylamino]-pyrimidin-4-yl}-benzoic acid]: the half-maximal inhibitory concentration (IC50) turned out to be 8 nM at PTGER2 (EP2), 5 nM against EP2, 248 nM against EP4 and 130 nM on PTGER4 (EP4).

`CCOc1cc(-c2cc(NCCc3c(OCC)cc4ccccc4c3C)ncn2)ccc1C(=O)O` [Example 418, 2-Ethoxy-4-{6-[2-(3-ethoxy-1-methyl-naphthalen-2-yl)-ethylamino]-pyrimidin-4-yl}-benzoic acid]: the IC50 at PTGER2 (EP2) turned out to be 10 nM; against EP2 it was 45 nM; at EP4 (BT549 cells), 148 nM; against PTGER4 (EP4) it was 54 nM.

Take `CCOc1cc2c(cc1CCNc1cc(-c3ccc(C(=O)O)c(OCC)c3)ncn1)OCCO2` [Ex 261, 2-Ethoxy-4-{6-[2-(7-ethoxy-2,3-dihydro-benzo[1,4]dioxin-6-yl)-ethylamino]-pyrimidin-4-yl}-benzoic acid]: the IC50 at PTGER2 (EP2) amounted to 53 nM; on EP2, 20 nM; against EP4, 406 nM; at PTGER4 (EP4), 396 nM.

`CCOc1cc(-c2cc(NCCc3ccc4c(c3)OCCO4)ncn2)sc1C(=O)O` [Ex 41, 5-{6-[2-(2,3-Dihydro-benzo[1,4]dioxin-6-yl)-ethylamino]-pyrimidin-4-yl}-3-ethoxy-thiophene-2-carboxylic acid]: the IC50 was 405 nM on PTGER2 (EP2), 164 nM against EP2, 21 nM at EP4 and 30 nM against PTGER4 (EP4).

For the molecule `Cc1c(CCNc2cc(-c3ccc(C(=O)O)c(CC(C)C)c3)ncn2)ccc2ccccc12` [Ex 76, 2-Isobutyl-4-{6-[2-(1-methyl-naphthalen-2-yl)-ethylamino]-pyrimidin-4-yl}-benzoic acid], the IC50 on PTGER2 (EP2) is 360 nM; against EP2 it was 221 nM; against EP4 it was 42 nM; on PTGER4 (EP4), 120 nM.

On to `CCOc1cc(-c2cc(NCCc3cc4ccsc4cc3C)ncn2)sc1C(=O)O` [Ex 34, 3-Ethoxy-5-{6-[2-(6-methyl-benzo[b]thiophen-5-yl)-ethylamino]-pyrimidin-4-yl}-thiophene-2-carboxylic acid], for which the IC50 was 6 nM on PTGER2 (EP2), 8 nM against EP2, 18 nM against EP4 and 25 nM against PTGER4 (EP4).

As to `CCOc1cc(-c2cc(NCCc3cc4ccsc4cc3OC)ncn2)sc1-c1noc(=O)[nH]1` [Example 342, 3-(3-Ethoxy-5-{6-[2-(6-methoxy-benzo[b]thiophen-5-yl)-ethylamino]-pyrimidin-4-yl}-thiophen-2-yl)-[1,2,4]oxadiazol-5(4H)-one], the IC50 at PTGER2 (EP2) was found to be 7 nM; on EP2, 20 nM; against EP4, 19 nM; on PTGER4 (EP4), 3 nM.

For the molecule `CCOc1cc(-c2cc(NCCc3c(OCC)cc4ccccc4c3C)ncn2)ccc1CC(=O)O` [Example 420, (2-Ethoxy-4-{6-[2-(3-ethoxy-1-methyl-naphthalen-2-yl)-ethylamino]-pyrimidin-4-yl}-phenyl)-acetic acid], the IC50 at PTGER2 (EP2) came out at 27 nM; against EP2 it was 257 nM; on EP4 (BT549 cells) it was 119 nM; against PTGER4 (EP4), 30 nM.

As for `CCSc1cc(-c2cc(NCCc3cc4ccoc4cc3OC)ncn2)ccc1C(=O)O` [Ex 158, 2-Ethylsulfanyl-4-{6-[2-(6-methoxy-benzofuran-5-yl)-ethylamino]-pyrimidin-4-yl}-benzoic acid], the IC50 on PTGER2 (EP2) was found to be 23 nM; against EP2, 16 nM; at EP4, 157 nM; against PTGER4 (EP4) it was 185 nM.

`Cc1c(CCNc2cc(-c3cc4c(C(=O)O)cccc4[nH]3)ncn2)ccc2ccccc12` [Ex 127, 2-{6-[2-(1-Methyl-naphthalen-2-yl)-ethylamino]-pyrimidin-4-yl}-1H-indole-4-carboxylic acid]: the IC50 at PTGER2 (EP2) was 181 nM; on EP2, 101 nM; against EP4 it was 103 nM; against PTGER4 (EP4), 109 nM.

As for `COc1cc2c(cc1CCNc1cc(-c3ccc4c(C(=O)O)coc4c3)ncn1)OCCO2` [Ex 199, 6-{6-[2-(7-Methoxy-2,3-dihydro-benzo[1,4]dioxin-6-yl)-ethylamino]-pyrimidin-4-yl}-benzofuran-3-carboxylic acid], the IC50 at PTGER2 (EP2) was found to be 177 nM; against EP2, 62 nM; on EP4 it was 138 nM; on PTGER4 (EP4), 2160 nM.

Values taken from patent US11839613B2, “Pyrimidine derivatives as PGE2 receptor modulators” (IDORSIA PHARMACEUTICALS LTD, priority 2017, dated 2023).
